From publication PMC6315541, “Nile Tilapia Derived Antimicrobial Peptide TP4 Exerts Antineoplastic Activity Through Microtubule Disruption” (Marine Drugs, 2018)

Key:
[1] = tested on: microtubule regrowth in A549 cells; test: Microtubule regrowth assay after nocodazole washout; type: cell-based, human; conditions: 10 μg mL^−1 TP4 3 h, nocodazole 20 μM 6 h, washout and recovery medium, α-Tubulin ICC, N = 3
Experimental: To examine whether TP4 may affect microtubule dynamics, A549 cells were treated with TP4, and cytoskeletal elements were analyzed by immunocytochemistry (ICC). […] We then asked whether TP4 treatment may influence tubulin protein levels by performing Western blots on lysates from A549 cells that had been treated with vehicle or TP4. […] We next conducted a microtubule regrowth assay to further address whether TP4 may disrupt microtubule polymerization. TP4 was applied to A549 cells that had been treated with or without Nocodazole (20 μM) treatment for 6 h, which completely depolymerizes the microtubule network. The repolymerization of microtubules was then initialized by the addition of fresh recovery medium, and regrowth was analyzed by ICC.
Figure 2 TP4 disrupts the microtubule network in cancer cells. (A) Cells were stained for α-Tubulin and F-actin. Hoechst33342 was used to stain nuclei. Arrows indicate cells with negative α-Tubulin staining. Bar: 20 μm. (B) Total lysates from cells with mock (labeled C) or TP4 treatment (labeled T) were analyzed by Western blot using antibodies against GAPDH and α-Tubulin. Quantification of the α-Tubulin signal normalized to GAPDH is shown. Mr is the molecular weight. […] Bar: 20 μm (D) Quantification of the number of cells with Tubulin-positive and Tubulin-negative staining. […]

A549 cells = test: Cell viability (CellTiter-Glo ATP assay) in A549 cells; type: cell-based, human; conditions: 24 h; for relative ATP levels (cell viability): CellTiter-Glo ATP assay, luminescence, mean ± SD of three independent assays, n ≥ 5 wells per dose
Experimental: Figure 6 Loss of cancer-killing ability in TP4 mutants. (A) Cell viability in A549 cells was determined by the adenosine triphosphate (ATP) assay following treatment with varying doses of TP4 and TP4 mutants for 24 h. Multiple wells were analyzed for each assay. Results represent the mean ± SD. Statistical comparisons between groups were performed using two-way ANOVA: a, not significant; b, p < 0.05; d, p < 0.001. Statistical analyses are shown in Supplementary Table S1. (B) Cells were stained for TP4 (WT panel), FITC (MT-1 to MT-6 panels), α-Tubulin, and F-actin. Hoechst33342 was used for nuclei staining. Boxed regions are magnified in the furthest right panels. […] Bar: 20 μm.
The A549 cell line (Bioresource Collection and Research Center (BCRC) 60074) was purchased from the BCRC and cultured according to BCRC recommendations. For the cell viability and transfection assay, 4–5 × 10^3 cells were seeded into the wells of a 96-well plate and cultured overnight. Cells were then treated according to the indicated doses and times. Cell viability was quantified using the CellTiter-Glo® Luminescent Cell Viability Assay kit (ATP assay) (Madison, WI, USA) as previously described. The luminescent signal was measured using a photometer (SpectraMax® i3, Molecular Devices, Wals, Austria).
For the multi-well based assay, cells were plated at least in quadruplicate. Data were collected from independently repeated experiments (N ≥ 3) and were analyzed by Prism5 software (GraphPad Inc., La Jolla, CA, USA). Statistical significance was determined by a two-tailed Student’s t-test or one-way/two-way analysis of variance (ANOVA) with a Bonferroni post hoc test. Differences were considered statistically significant at p < 0.05. […]
Supplementary Table S1. Cellular toxicit y of TP 4 to A549 cells was evaluated b y cell viability. Results of statis tical tests on data in Figu re 6A are shown. Multiple wells were anal yzed for each ex periment (n ≥ 5 wells per do se). Results represent the mean ± SD from three independent assays. Statistical comparisons between mock versus TP4 treatment groups were performed using two -way ANOVA anal ysis with Bonferroni post-hoc test: a, not signi ficant; b, P < 0.05; c, P < 0.01; d, P < 0.001. […]
(A-G) Th e helical projection plot and s tructural model o f TP4 (A) and TP4 variants (MT-1 to MT-6, B-G ). The helical proj ecti on was produced b y an online helical wheel projection program (http://rzlab.ucr.edu/scripts/wheel/wheel.cgi). Amino acid residues are numbered and each amino acid is connected with lines to indicate its relative position along the helix. The hydrophobic residues are shown as diamonds ; h ydrophilic residues are circles. Residues with negative charge are shown as trian gles and positively charged residues are pentagons. Hydrophobicity is color coded. The

Sequence: FIHHIIGGLFSAGKAIHRLIRRRRR [TP4, synthesized Nile tilapia-derived antimicrobial peptide, Tilapia piscidin 4]
- cells with microtubule regrowth defects [1]: increased portion of TP4-treated cells had microtubule regrowth defects
- relative ATP levels (cell viability) (A549 cells; 3.35 µM): 0.580±0.061
- relative ATP levels (cell viability) (A549 cells; 5.03 µM): 0.211±0.030
- relative ATP levels (cell viability) (A549 cells; 6.71 µM, listed as WT): 0.129±0.034
- relative ATP levels (cell viability) (A549 cells; 6.71 µM, listed as wild-type TP4, 6.71 µM): 0.130 ± 0.036
- relative ATP levels (cell viability) (A549 cells; 20.12 µM, listed as WT): 0.009±0.010
- relative ATP levels (cell viability) (A549 cells; 20.12 µM, listed as wild-type TP4, 20.12 µM): 0.010 ± 0.010
- cytotoxicity to A549 cells (in words) (A549 cells; doses 3.35-20.12 µM, ATP assay, Figure 6A): obvious dose-dependent cytotoxic effects
